Results: patent US20250332249A1, “CYTOM[…] CELL EPITOPES AND USES THEREOF” (LA JOLLA INSTITUTE FOR IMMUNOLOGY, priority 2021, published 2025)
Where no end group is shown, it is not given here.

System: PBMCs from HCMV seropositive subjects
Assay: ex vivo IFN-γ Fluorospot assay
Type: cell-based, human
Details: 19 HCMV seropositive subjects, individual peptide 10 ug/ml, 20 hr; for No. of subjects responding: IFN-γ; for Magnitude of response: IFN-γ spots (FIG. 1: SFC/10^6 PBMC; no unit in table)
Experimental: To define the targets of HCMV-specific T cell epitopes recognized in healthy adults, the inventors screened PBMCs of 19 subjects, 10 males and 9 females, recruited from San Diego blood bank (SDBB). The HCMV seropositivity of all the subjects was confirmed by IgG ELISA (FIG. 6A). A total of 2593 HCMV peptides covering a total of 563 ORFs (1) were tested. However, as many of these predicted ORFs overlapped 100% with others, as they were internal to longer ORFs, these 563 contained 359 completely unique ORFs composed of ˜150“canonical” ORFs, and an additional ˜200 identified by ribosomal RNA profiling (1). These peptides corresponded to predicted dominant epitopes, based on a bioinformatic method that predicts promiscuous binding to HLA class II molecules (40). Each of the ORFs above was covered by multiple predicted epitopes (with a minimum of at least 2), with the exception of very small ORFs (less than 15-20 amino acid residues), in which case at least one peptide was synthetized. The 2593 peptides were arranged in 89 pools of 28-30 15-mer peptides. PBMC reactivity of each of the 89 pools was assayed directly ex vivo using an IFN-γ Fluorospot assay.
For the initial CMV ORF screen, the responses of 19 CMV-seropositive subjects were evaluated. PBMCs were stimulated with 89 pools covering 563 ORFs of HCMV. Each pool comprised of 28-30 15-mer peptides overlapping by 10 residues. PBMCs that were found reactive to a pool were further tested against individual peptides contained in the pool using IFN-γ Fluorospot assay.
PBMC were thawed, washed and counted for viability using the trypan blue exclusion method. 200,000 cells were plated in triplicates and stimulated with pools (2 ug/ml) or peptides (10 ug/ml), PHA (10 ug/ml) or medium containing equivalent amount of DMSO in 96-well plates (Immubilion-P, Millipore) previously coated with anti IFN-γ antibody (1-DIK, Mabtech, Stockholm, Sweden). After 20 hr incubation at 37° C., cells were discarded and wells were washed six times with PBS/0.05% Tween 20 using an automated plate washer and further incubated with IFN-γ antibody (7-B6-1-FS-BAM) for 2 hrs at room temperature. After incubation, wells were washed and incubated with fluorophore conjugated anti-BAM-490 antibody for 1 hr at room temperature. Finally, the plates were washed and incubated with fluorescence enhancer for 15 min, blotted dry and fluorescent spots were counted by computer assisted image analysis (IRIS Fluorospot reader, Mabtech, Sweden).
Each pool or peptide was considered positive compared to the background that had equivalent amount of DMSO based on the following criteria: (i) 20 or more spot forming cells (SFC) per 10^6 PBMC after background subtraction, (ii) the stimulation index greater than 2, and (iii) p<0.05 by student's t test or Poisson distribution test

Row | Substance | No. of subjects responding | Magnitude of response
1 | 230 (IVVGLPFFLEYAKHH) [compound 230] | 2 | 1250
2 | 205 (VVAYVILERLWLAAR) [compound 205] | 1 | 23
3 | 53 (EFLVRQYVLVDTFGV) [compound 53] | 2 | 104
4 | 191 (FYMNWTLRRSQTHYL) [compound 191] | 6 | 16883
5 | 197 (DRLSTLAATMCMFDY) [compound 197] | 1 | 53
6 | 157 (HLGWQTLSNHVIRRL) [compound 157] | 1 | 127
7 | 139 (PWYPITQARTLELTP) [compound 139] | 2 | 996
8 | 81 (YLFKRMIDLSSISTV) [compound 81] | 1 | 67
9 | 171 (ITKPEVISVMKRRIE) [compound 171] | 1 | 1600
10 | 183 (IAITMVMRFWQYING) [compound 183] | 3 | 163
11 | 194 (TRGYVRYTLSPKARL) [compound 194] | 7 | 9337
12 | 227 (PRLHCLVTTRSSTRE) [compound 227] | 1 | 1277
13 | 162 (VCLILSFSIVTAALW) [compound 162] | 1 | 43
14 | 214 (MLVVTVFDTTRLFEI) [compound 214] | 1 | 840
15 | 116 (RVTGLVFSVVFSVSL) [compound 116] | 4 | 6380
16 | 210 (LWYLGDYGAILKIYF) [compound 210] | 1 | 40
17 | 151 (DPLLRLSQVAGSGRR) [compound 151] | 2 | 2067
18 | 67 (TDLIRFERNIVCTSM) [compound 67] | 3 | 273
19 | 54 (RREAIVRLEKTPTCQ) [compound 54] | 2 | 407

Row | Substance | No. of subjects responding | Magnitude of response
20 | 131 (PFTVLRLSYAYRIFA; ends and bridges not checked) [compound 131] | 1 | 33
21 | 134 (RLGTAATQIQKQTLY; ends and bridges not checked) [compound 134] | 1 | 30
22 | 18 (AEDSVFTSTRARSAT) [compound 18] | 1 | 490
23 | 199 (SSIFTSTHRGVIVAP) [compound 199] | 1 | 27
24 | 16 (HENGIYYGTRSMRKL) [compound 16] | 1 | 827
25 | 138 (AAITVVPVITQSRLA) [compound 138] | 3 | 450
26 | 63 (AFKLDLLRMIAVSRT) [compound 63] | 2 | 477
27 | 200 (LSVRYLSLTAYMLLA) [compound 200] | 1 | 1200
28 | 156 (RVFCLSADWIRFLSL) [compound 156] | 2 | 846
29 | 142 (SGRVILWTTLRLCIL) [compound 142] | 1 | 20
30 | 86 (TMRSVFEMQRIRHGA) [compound 86] | 1 | 67
31 | 233 (HDPLGLTRFIMRQLM) [compound 233] | 1 | 473
32 | 133 (MLIQQYVLSQYYIKK; ends and bridges not checked) [compound 133] | 1 | 20
33 | 144 (TFDVRQFVFDNARLV) [compound 144] | 6 | 13736
34 | 135 (KTQIFNKLFTNRISV; ends and bridges not checked) [compound 135] | 1 | 1587
35 | 224 (LFRAGLMKVYVRRRY) [compound 224] | 1 | 870
36 | 219 (WFLVMREQAAIPQIY) [compound 219] | 4 | 1100
37 | 235 (GLVYRELHDFYGYLQ) [compound 235] | 1 | 963
38 | 225 (VVFMGRFSRVYAYDT) [compound 225] | 1 | 70

Row | Substance | No. of subjects responding | Magnitude of response
39 | 21 (ALALHFLTSRKGVTD) [compound 21] | 1 | 40
40 | 77 (LRGYINRALAQIAEA) [compound 77] | 3 | 30337
41 | 12 (ARRLWILSLLAVTLT; ends and bridges not checked) [compound 12] | 1 | 100
42 | 36 (SLQFIGLQRRDVVAL; ends and bridges not checked) [compound 36] | 1 | 83
43 | 222 (PSQEILLLCARHLDE) [compound 222] | 3 | 110
44 | 209 (PWWRRLRVKRPKFPS) [compound 209] | 1 | 240
45 | 51 (GPGFMRYQLIVLIGQ; ends and bridges not checked) [compound 51] | 1 | 3167
46 | 13 (LLAVTLTVALAAPSQ; ends and bridges not checked) [compound 13] | 2 | 6420
47 | 10 (MLGIRAMLVMLDYYW) [compound 10] | 1 | 350
48 | 79 (AILSAIYNKPIAARF) [compound 79] | 5 | 11264
49 | 24 (ICVARLQAQPSSRHI) [compound 24] | 1 | 37
50 | 165 (LVKQIKVRVDMVRHR) [compound 165] | 3 | 580
51 | 34 (LRIIRLLRASIRHEY; ends and bridges not checked) [compound 34] | 1 | 810
52 | 136 (VRSLAVDAQHAAKRV; ends and bridges not checked) [compound 136] | 1 | 53
53 | 201 (TAYKAFLWKYAKKLN) [compound 201] | 1 | 503
54 | 198 (LFYRAVALGTLSALV) [compound 198] | 3 | 2633
55 | 103 (CRSATSLVGNTNADV) [compound 103] | 1 | 30
56 | 72 (QLMPDDYSNTHSTRY) [compound 72] | 5 | 45517
57 | 168 (CSPDEIMSYAQKIFK) [compound 168] | 2 | 194
